Measured values published in patent publication US20050020692A1, “Treatment of heaves” (priority 2003, published 2005).
Counter-ions that a name gives are not always drawn. Like-named read-outs stand apart in the source and are kept apart here.

How the values were obtained:
[1] = test system: Antigen-specific T-cell lines; test: Antigen-specific T-cell lines: proliferation, apoptosis, cytokine secretion; format: cell-based, human
Procedure: Parallel lines were generated in the presence of propranolol. Cells were evaluated for proliferation, apoptosis, and cytokine secretion.

[2] = test system: adrenergic β-2 receptors; test: cAMP production in human PC3 cells; settings: PC-3, read-out: EC50 for cAMP production
[3] = format: physicochemical
Excerpt: The chemical and optical purities of all batches used for biological studies have been >98%. […] No polymorphs have been detected.

[4] = test system: isolated guinea pig tracheas; test: Inhibition of airway smooth muscle contractions, isolated guinea pig tracheas; settings: Cavia porcellus, read-out: pD2 (converted)
Procedure: The following study was performed in vitro, using isolated guinea pig tracheas. The airway smooth muscle tissues were contracted by carbachol or ovalbumin or histamine. […] Results: pD2 Values of the Enantiomers of Albuterol

[5] = test system: equine bronchial smooth muscle; test: Carbachol-induced contractions of equine bronchial smooth muscle (hyperreactivity); parameters: species or system horse; settings: 37° C.
Procedure: In this study, segments of equine bronchial smooth muscle are mounted on special holders and immersed in a physiologic solution containing glucose and aerated with 95% O2 and 5% CO2 at 37° C. Isometric tension is measured with force transducers and registered electronically. The effects of R-, RS- and S-albuterol on carbachol-induced contractions are studied.

[6] = test system: isolated human leukocytes (buffy coat); test: A23187-stimulated histamine release from isolated human leukocytes; format: cell-based; settings: for inhibition of release of the marker inflammatory mediator histamine: A23187 5 μM, 20 min/37° C., 4×10^−4 M to 10^−6 M
Procedure: In this study, histamine was the marker compound for inflammatory mediators that are released from pro-inflammatory cells. The inhibition of stimulated histamine release from isolated human leukocytes (buffy coat) by test articles was studied. The method is a modification of the methodology described by Nolte et al. (1988). Leukocytes were obtained from healthy volunteers and inflammatory mediator release was induced by incubation (20 min/37° C.) with the Ca-ionophore A23187 (5 μM) in the presence or absence of a test article. Histamine was analyzed by enzyme-immuno assays (E.I.A.), using commercially available kits and a microplate reader (MRX, Dynatech). The test articles were tested in each assay at five concentrations ranging from 4×10^−4 M to 10^−6 M, in duplicate. In the same experiment, a reference compound was tested in duplicate at eight concentrations to obtain an inhibition curve to validate the experiment (not shown here). Results: […]

[7] = test system: M-form phenolsulfotransferase (M-PST); test: Sulfotransferase activity in horse liver cytosol / intestinal mucosa; format: in vitro ADME
Procedure: Method: The livers from recently slaughtered horses are homogenized and the cytosol is prepared by differential centrifugation. The protein concentration of the cytosolic preparation is determined by the Lowry method (Lowry O. H. et al.: Protein measurement with the foline phenol reagent. J. Biol. Chem. 1951, 193: 265-275). […] Cytosol from the livers is incubated at 15 °C. After removal of unmetabolized beta-2 agonist with ethyl acetate, free drug is released from the conjugate using sulfatase. The concentrations of beta-2 agonist enantiomers are analyzed by chiral HPLC assay.
Results from tests with intestinal mucosa yielded the same surprising results.

[8] = horse
[9] = test system: pro-inflammatory cells; settings: cited from earlier work
[10] = contractile stimulus Carbachol (10^-6 M)
[11] = contractile stimulus Histamine (10^-5 M)
[12] = contractile stimulus Ovalbumin (10-5 g/ml)

EC50 [2]	solubility in water [3]	EC50 [4, 10]	EC50 [4, 11]	EC50 [4, 12]	Structure (SMILES)	effect on equine bronchial smooth muscle [5]	inhibition of release of the marker inflammatory mediator histamine [6]	also measured
–	readily soluble	–	–	–	CC(C)(C)NC[C@H](O)c1ccc(O)c(CO)c1.Cl [R(−)-albuterol hydrochloride]	–	–	–
–	readily soluble	–	–	–	CC(C)(C)NC[C@H](O)c1ccc(O)c(CO)c1.CC(C)(C)NC[C@H](O)c1ccc(O)c(CO)c1.O=S(=O)(O)O [R(−)-albuterol sulfate]	–	–	–
100 nM	–	79.4 nM	20 nM	5.01 nM	CC(C)(C)NC[C@H](O)c1ccc(O)c(CO)c1 [R(−)-albuterol, (R)-[…]^1-[[(1,1-dimethylethyl)amino]methyl]-4-hydroxy-1,3-benzene-dimethanol, sulfate (2:1) (salt)]	causing bronchorelaxation	Neither R(−)-albuterol nor S(+)-albuterol inhibited the release	T-cell proliferation ([1]; 10(−7) mol/L, % of control): 61.1%±9.0%; IL-2 and IFN-gamma production ([1]; 10(−8) mol/L): inhibited; T-cell proliferation ([1]; 10(−8) mol/L): 77.0%±9.7%; intestinal or hepatic metabolism by M-form phenolsulfotransferase [7]: not to undergo intestinal or hepatic metabolism; inversion to S-albuterol [8]: no such inversion takes place
14000 nM	–	79400 nM	5010 nM	31600 nM	CC(C)(C)NC[C@@H](O)c1ccc(O)c(CO)c1 [S(+)-albuterol]	causing bronchial hyperreactivity	Neither R(−)-albuterol nor S(+)-albuterol inhibited the release	increase of release of histamine from leukocytes ([6]; at concentrations of 10 μM and higher): significantly and dose-dependently increased the release; influence on T-cell proliferation ([1]; S(+)-albuterol alone): No influence was observed; facilitation of release of inflammatory mediators [9]: facilitating the release

Structure (SMILES)	EC50 [2]	solubility in water [3]	EC50 [4, 10]	EC50 [4, 11]	EC50 [4, 12]	effect on equine bronchial smooth muscle [5]	inhibition of release of the marker inflammatory mediator histamine [6]	also measured
CC(C)(C)NCC(O)c1ccc(O)c(CO)c1 (racemic) [RS-albuterol]	207 nM	–	–	–	–	–	–	influence on proliferation [1]: minimal influences; cytokine production ([1]; 10(−8) mol/L each isomer): no influence
